Test results reported in patent publication US20250101378A1, “CULTURE MEDIUM AND CULTURE METHOD FOR MAMMARY EPITHELIAL CELLS, AND USE OF MAMMARY EPITHELIAL CELLS” (PRECEDO PHARMACEUTICALS CO., LTD, priority 2022, published 2025).

B1: fibroblast growth factor 10 (protein, UniProt O15520 38-208, looked up)
Fibroblast growth factor 10: QALGQDMVSPEATNSSSSSFSSPSSAGRHVRSYNHLQGDVRWRKLFSFTKYFLKIEKNGKVSGTKKENCPYSILEITSVEIGVVAVKAINSNYYLAMNKKGKLYGSKEFNNDCKLKERIEENGYNTYASFNWQHNGRQMYVALNGKGAPRRGQKTRRKNTSAHFLPMVVHS
notes: growth factor used as culture medium additive

Assays:
Assay type in all cases: cell-based, human
breast tumor cells (5 #) = experiment: In vitro drug sensitivity test, Cell Titer-Glo cell viability; conditions: 72 hours after drug administration, 1:3 dilution series from 2 times Cmax
Protocol: I. Plating of primary breast cancer cells: using the culture medium of the invention in section (5) of Example 1, breast tumor cells (5 #) were cultured by the method described in section (1) of Example 2, and the cells were inoculated in a 384-well plate at a density of 3000 to 5000 cells/well, and the cells were subjected to adherent culture overnight.
(1) The drug storage plate was prepared by the concentration gradient dilution method: 10 μL of the drug stock solutions to be tested (the concentration of the drug stock solution was prepared at 2 times the maximum plasma concentration Cmax of the drug in the human body) were respectively taken and added to a 0.5 mL EP tube containing 20 μL of DMSO, and then 10 μL was aspirated from the above EP tube into a second 0.5 mL EP tube containing 20 μL of DMSO, that is, the drug was diluted 1:3. The above process was repeated for gradually dilution until 8 or 9 concentrations required for dosing were obtained. Different concentrations of drugs were added to the 384-well drug storage plate. Equal volume of DMSO was added to each well of the solvent control group as a control. In this example, the drugs to be tested are clinically approved anti-tumor drugs, docetaxel (MCE), palbociclib (MCE), dovitinib (MCE), capecitabine (MCE), crizotinib (MCE) and etoposide (MCE).
(2) Using a high-throughput automated workstation (purchased from Perkin Elmer), different concentrations of drugs and solvent controls in the 384-well drug storage plates were added to the 384-well cell culture plates plated with the breast tumor cells. Both the drug groups and the solvent control groups were set up with 3 replicate wells. The volume of drug added to each well was 100 nL.
(3) Cell activity detection: 72 hours after drug administration, Cell Titer-Glo assay kit (manufactured by Promega) was used to detect the chemiluminescence value of the cultured cells after drug administration. The magnitude of the chemiluminescence value reflects the cell viability and the effect of the drug on the cell viability. The prepared Cell Titer-Glo detection solution was added to each well, and a microplate reader was used to detect the chemiluminescence value after mixing.
Graphpad Prism 7.0 software was used to draw graphs and calculate the median inhibition concentration IC50.

[1] = system: primary breast cancer cells (2 #); experiment: Optimization of the concentration of additives in the culture medium (cell count on day 14, FIGS. 1A-1G); conditions: graded concentrations added to Formulations 1-7, 96-well plate, day 14 cell count
Protocol: The following 7 different formulations of culture mediums were further prepared: • Formulation 1: the Basal Medium was added with 1:100-fold diluted MEM-NEAA, 1 mM sodium pyruvate, 50 ng/ml IGF1, 20 ng/ml bFGF, 10 ng/ml TNF-α and 20 ng/ml FGF10; • Formulation 2: the Basal Medium was added with 10 nM β-estradiol, 1 mM sodium pyruvate, 50 ng/ml IGF1, 20 ng/ml bFGF, 10 ng/ml TNF-α and 20 ng/ml of FGF10; • Formulation 3: the Basal Medium was added with 10 nM β-estradiol, 1:100-fold diluted MEM-NEAA, 50 ng/ml IGF1, 20 ng/ml bFGF, and 10 ng/ml TNF-α and 20 ng/ml FGF10; • Formulation 4: the Basal Medium was added with 10 nM β-estradiol, 1:100-fold diluted MEM-NEAA, 1 mM sodium pyruvate, 20 ng/ml bFGF, and 10 ng/ml TNF-α and 20 ng/ml FGF10; • Formulation 5: the Basal Medium was added with 10 nM β-estradiol, 1:100-fold diluted MEM-NEAA, 1 mM sodium pyruvate, 50 ng/ml IGF1, and 10 ng/ml TNF-α and FGF10 at 20 ng/ml; • Formulation 6: the Basal Medium was added with 10 nM β-estradiol, 1:100-fold diluted MEM-NEAA, 1 mM sodium pyruvate, 50 ng/ml IGF1, 20 ng/ml bFGF and 20 ng/ml FGF10; • Formulation 7: the Basal Medium was added with 10 nM β-estradiol, 1:100-fold diluted MEM-NEAA, 1 mM sodium pyruvate, 50 ng/ml IGF1, 20 ng/ml bFGF and 10 ng/ml of TNF-α.
Subsequently, β-estradiol (Sigma) was added to Formulation 1 to prepare culture mediums for human mammary epithelial cells containing β-estradiol at final concentrations of 5 nM, 10 nM, 50 nM, and 100 nM, and each culture medium was added to a 96-well plate coated with Matrigel at a volume of 100 μl/well, with 3 replicates for each concentration. The primary breast cancer cells (2 #) isolated from breast tumor tissue in Example (1) were seeded in a Matrigel-coated 96-well culture plate at a density of 500 cells/well and cultured in Formulation 1 containing different concentrations of β-estradiol at 37° C. and 5% CO2. The culture medium was replaced every 3 days after the start of culture. On the 14th day of culture, the cells were counted. Formulation 1 was used as an experimental control, i.e., the content of β-estradiol was 0 nM.
Non-essential amino acids (MEM-NEAA) additive (Thermo Fisher) was added to Formulation 2 at a dilution ratio of 1:200, 1:100, 1:50, and 1:20 to prepare culture mediums for human mammary epithelial cells containing different concentrations of non-essential amino acids. The culture mediums of different formulations were added to a 96-well plate coated with Matrigel at a volume of 100 μl/well, with 3 replicates for each concentration. Primary cells were cultured and counted in the same manner as above. As an experimental control, Formulation 2 was used, i.e., the content of non-essential amino acids was 0.
Similarly, sodium pyruvate (Thermo Fisher) was added to Formulation 3 to prepare culture mediums for human mammary epithelial cells containing sodium pyruvate at final concentrations of 0.5 mM, 1 mM, 2 mM, and 4 mM. […] Primary cells were cultured and counted in the same manner as above. […]
Then, insulin-like growth factor 1 (IGF1, manufactured by R&D) was added to formulation 4 to prepare culture mediums for human mammary epithelial cells containing IGF1 at final concentrations of 10 ng/ml, 20 ng/ml, 50 ng/ml, 100 ng/ml, and 200 ng/ml, and the culture mediums containing different concentrations of IGF1 were added to a 96-well plate coated with Matrigel at a volume of 100 μl/well, with 3 replicates for each concentration. Primary cells were cultured and counted in the same manner as above. […]

[2] = system: primary breast cancer cells isolated from breast tumor tissue; experiment: Screening of additive factors in the culture medium of primary mammary epithelial cells (cell count after 14 days); set-up: key to Level of promoting proliferation: +: compared with the Basal Medium, the culture medium added with the additive(s) has the effect of promoting the proliferation of at least three cases of primary breast cancer cells isolated from breast tumor tissue; ++: the number of “+” indicates the degree of proliferation promotion; ++++: the number of “+” indicates the degree of proliferation promotion; −: the culture medium added with the additive(s) has the effect of inhibiting the proliferation of at least two cases of primary breast cancer cells isolated from breast tumor tissue; the culture medium added with the additive(s) has no significant effect on the proliferation of at least three cases of primary breast cancer cells isolated from breast tumor tissue; conditions: 14 days of culture; for Level of promoting proliferation: additive added to Basal Medium at the concentration of Table 1, cell count compared with Basal Medium, five breast tumor samples; for promotion of growth of primary breast tumor cells (in words): additive added to Basal Medium, compared with Basal Medium
Protocol: First, a basal culture medium based on WO 2021/088119 was prepared. To a commercially available DMEM/F-12 culture medium, GlutaMAX-I (manufactured by Thermo Fisher Scientific) was added at the concentration specified in the instruction manual (1:100 dilution), human insulin (Sigma) was added at a final concentration of 10 μg/ml, ROCK inhibitor Y27632 (Sigma) was added at a final concentration of 10 μM, penicillin-streptomycin (Thermo Fisher Scientific) was added at a 1:100 dilution, human amphiregulin (manufactured by R&D systems) was added at a final concentration of 20 ng/ml, epidermal growth factor (EGF, manufactured by Peprotech) was added at a final concentration of 10 ng/ml, B27 (Thermo Fisher Scientific) was added at a 1:50 dilution, human neuregulin 1 (Peprotech) was added at a final concentration of 10 nM, fibroblast growth factor 7 (FGF7, R&D systems) was added at a final concentration of 10 ng/ml), and TGFβ1 inhibitor A8301 (manufactured by MCE) was added at a final concentration of 500 nM, to prepare a basal culture medium for primary mammary epithelial cells, hereinafter referred to as “Basal Medium”.
Then, different types of additives (Table 1) were added to the Basal Medium to prepare culture mediums for mammary epithelial cells containing different additives. The culture medium with different components was added to a 24-well plate coated with extracellular matrix gel at a volume of 500 μl/well, and 3 replicates were prepared for each culture medium formulation. The breast cancer cells (1 #) isolated from the breast tumor tissue in Example (1) were inoculated at a cell density of 3×10^4 cells/well in a 24-well culture plate coated with extracellular matrix gel, and cultured at 37° C. and 5% CO2 concentration using different culture medium formulations, respectively. The culture medium was replaced every 3 days after the start of culture. After 14 days of culture, the cells were counted. Basal Medium without addition of any additive shown in Table 1 was used as an experimental control.
The tumor cells isolated from the rest four cases of breast tumor tissue samples were also cultured and counted in the same manner as above.

Molecule	sensitivity of breast cancer cells to drug (in words) (breast tumor cells (5 #))	effect on in vitro proliferation of primary breast cancer cells (in words) [1]	Level of promoting proliferation [2]	promotion of growth of primary breast tumor cells (in words) [2]
CC(=O)O[C@@]12CO[C@@H]1C[C@H](O)[C@@]1(C)C(=O)[C@H](O)C3=C(C)[C@@H](OC(=O)[C@H](O)[C@@H](NC(=O)OC(C)(C)C)c4ccccc4)C[C@@](O)([C@@H](OC(=O)c4ccccc4)[C@H]21)C3(C)C [docetaxel]	more sensitive			
C[C@@H](Oc1cc(-c2cnn(C3CCNCC3)c2)cnc1N)c1c(Cl)ccc(F)c1Cl [crizotinib]	less sensitive			
insulin-like growth factor 1		obvious proliferative effects	+	promote the growth
tumor necrosis factor α		obvious proliferative effects	++	stronger
C[C@]12CC[C@@H]3c4ccc(O)cc4CC[C@H]3[C@@H]1CC[C@@H]2O [β-estradiol]		obvious proliferative effects	∘	
COc1cc([C@@H]2c3cc4c(cc3[C@@H](O[C@@H]3O[C@@H]5CO[C@@H](C)O[C@H]5[C@H](O)[C@H]3O)[C@H]3COC(=O)[C@H]23)OCO4)cc(OC)c1O [etoposide]	more sensitive			
CCCCCOC(=O)Nc1nc(=O)n([C@@H]2O[C@H](C)[C@@H](O)[C@H]2O)cc1F [capecitabine]	less sensitive			
CC(=O)C(=O)[O-].[Na+] [sodium pyruvate]			∘	
basic fibroblast growth factor		obvious proliferative effects	++	stronger
B1		dose-dependent pro-proliferation effect	+	promote the growth
